Test systems include XF498; DLD-1; RXF 631; M19-MEL; SNB-78; KM-20L2; DMS-273; HOP-18; DMS-114.
What all share (assay): NCI anticancer screen, dose series, 48 h

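Results reflect a 48-hour exposure of cells in 96-well plates to compound at five concentrations. Here, GI50 denotes the concentration required for 50% inhibition of growth.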 Activity calls are given as the source filed them. No stated cut-off is given here; in the data, active = GI50 up to about 1.1 µM and inactive = higher.

Turning to `O=C1NC(O)n2c(=O)[nH]c(=O)n21` (centres undefined), the GI50 in the experiment with XF498, in the experiment with DLD-1, in the experiment on RXF 631, in the experiment with M19-MEL, with SNB-78 and in the experiment with KM-20L2 was > 100 µM (inactive) throughout. Also, the GI50 with DMS-273 and with HOP-18 was > 100 µM (inactive) each time.
On to `Clc1ccc(C2=NOC(C3CCCCC3)C2)cc1` (centres undefined), for which the GI50 in the experiment on DMS-114, in the experiment with DLD-1, in the experiment with M19-MEL, with SNB-78, in the experiment on DMS-273 and in the experiment on HOP-18 was > 100 µM (inactive) each time.
For the compound `O=C1CCSC2=C1SCc1sccc12`, the GI50 with DMS-114, with XF498, with DLD-1, in the experiment on M19-MEL, in the experiment on SNB-78 and with KM-20L2 was > 100 µM (inactive) in each case.
Regarding `CCOc1cc2c(cnc3c4cc(OC)c(OC)cc4ccc23)cc1OC`, the GI50 in the experiment on DMS-114, in the experiment on XF498, in the experiment with DLD-1, in the experiment with M19-MEL and with KM-20L2 was > 100 µM (inactive) each time.
As for `C=CN1C(=O)OC[C@@H]1c1ccccc1`, the GI50 with DMS-114 is 34.5 µM (inactive); in the experiment with XF498 it was 83 µM (inactive); with DLD-1, > 100 µM (inactive); with RXF 631, > 100 µM (inactive); with M19-MEL, > 100 µM (inactive); in the experiment on SNB-78, > 100 µM (inactive). In addition, the GI50 in the experiment on KM-20L2 is > 100 µM (inactive); with DMS-273, 20 µM (inactive); in the experiment with HOP-18, > 100 µM (inactive).
In the case of `COc1ccccc1C1c2cc3c(cc2OC(O)(CO)C1C(=O)O)OCO3.COc1ccccc1C1c2cc3c(cc2OC2(O)COC(=O)C12)OCO3` (centres undefined), the GI50 with DMS-114, in the experiment on DLD-1, in the experiment with M19-MEL, in the experiment with SNB-78, in the experiment on KM-20L2 and in the experiment on DMS-273 was > 100 µM (inactive) each time. Further, the GI50 with HOP-18 is > 100 µM (inactive).
Consider `O=S1(=O)c2ccccc2NC(c2ccc3ccccc3c2)CC1c1ccccc1F` (centres undefined), for which the GI50 in the experiment on XF498, in the experiment with DLD-1, in the experiment with RXF 631, with M19-MEL, with KM-20L2 and in the experiment with DMS-273 was > 100 µM (inactive) throughout. Moreover, the GI50 in the experiment on HOP-18 is 22.1 µM (inactive).
Take `O=C1CCCc2c(O)ccc(O)c21`: the GI50 was 19.9 µM (inactive) in the experiment with DMS-114; > 100 µM (inactive) with DLD-1; 93.5 µM (inactive) with M19-MEL; > 100 µM (inactive) in the experiment on SNB-78; > 100 µM (inactive) in the experiment on KM-20L2; > 100 µM (inactive) with DMS-273. Besides, the GI50 with HOP-18 is > 100 µM (inactive).
With `N#CC1C[C@@H]2CC3(CCC2CN1C(=O)c1ccccc1)OCCO3` (some centres undefined), the GI50 with DMS-114, in the experiment on XF498, with DLD-1, in the experiment with M19-MEL, with SNB-78 and in the experiment on KM-20L2 was > 100 µM (inactive) each time. Also, the GI50 in the experiment on DMS-273 and with HOP-18 was > 100 µM (inactive) each time.
Consider `CCOC(=O)[C@H]1CSC[C@@H](C(=O)OC)N1`, for which the GI50 in the experiment with DMS-114, in the experiment with DLD-1, in the experiment on M19-MEL and in the experiment on DMS-273 was > 100 µM (inactive) in each case.
On to `NC1=NNC(=O)c2nnc3c(C(=O)O)cnn3c2S1`, for which the GI50 in the experiment with DMS-114, in the experiment on DLD-1, in the experiment on M19-MEL, in the experiment with KM-20L2 and with HOP-18 was > 100 µM (inactive) each time.
With `COc1cccc(C=O)c1[O-].COc1cccc(C=O)c1[O-].[Zn+2]`, the GI50 is 51.6 µM (inactive) in the experiment on DMS-114; 47 µM (inactive) in the experiment on DLD-1; 31.8 µM (inactive) in the experiment with M19-MEL; > 100 µM (inactive) in the experiment on SNB-78; > 100 µM (inactive) in the experiment with KM-20L2; 60.5 µM (inactive) with DMS-273. In addition, the GI50 in the experiment on HOP-18 was 40.9 µM (inactive).
On to `O=c1cc(-c2ccccc2)[nH]c2c(F)ccc(F)c12`, for which the GI50 was 28.7 µM (inactive) with DMS-114; > 100 µM (inactive) with DLD-1; 41.4 µM (inactive) in the experiment on M19-MEL; 24.3 µM (inactive) in the experiment on DMS-273; > 100 µM (inactive) with HOP-18.
For the compound `O=C(NCCCCCCCCCCCCNC(=O)c1cnc2ccccc2n1)c1cnc2ccccc2n1`, the GI50 in the experiment with DMS-114 was 27.8 µM (inactive); in the experiment on DLD-1, > 100 µM (inactive); in the experiment with RXF 631 it was 99.5 µM (inactive); in the experiment on M19-MEL it was > 100 µM (inactive); with SNB-78, 76.9 µM (inactive); in the experiment on KM-20L2 it was > 100 µM (inactive). The GI50 was 64.6 µM (inactive) in the experiment with DMS-273 and 20.7 µM (inactive) in the experiment with HOP-18.
In the case of `CCOC(=O)C(C[Si](C)(C)C)P(=O)(OCC)OCC` (centres undefined), the GI50 in the experiment on DMS-114, in the experiment on XF498, with DLD-1, in the experiment with RXF 631, in the experiment with M19-MEL and in the experiment with SNB-78 was > 100 µM (inactive) throughout. In addition, the GI50 in the experiment with KM-20L2 and with DMS-273 was > 100 µM (inactive) in each case.
As for `O=C(CP(=O)(O)O)c1cccs1`, the GI50 with DMS-114, in the experiment with DLD-1, with M19-MEL, with SNB-78, in the experiment on KM-20L2 and in the experiment with DMS-273 was > 100 µM (inactive) each time. Also, the GI50 in the experiment with HOP-18 is > 100 µM (inactive).
In the case of `COc1ccc2c(c1)CCc1cnn(C3OC(COC(C)=O)C(OC(C)=O)C(OC(C)=O)C3OC(C)=O)c1-2` (centres undefined), the GI50 with DMS-114 is 65.6 µM (inactive); in the experiment on XF498 it was 22.6 µM (inactive); in the experiment with DLD-1 it was 46.8 µM (inactive); with RXF 631, > 100 µM (inactive); in the experiment with M19-MEL, 66.2 µM (inactive); in the experiment with SNB-78 it was > 100 µM (inactive). For the same compound, the GI50 in the experiment on KM-20L2 is 22.5 µM (inactive); with DMS-273, > 100 µM (inactive).
Regarding `CC(=O)N(N=O)c1ccc(N(N=O)C(C)=O)cc1`, the GI50 in the experiment with DMS-114, in the experiment on DLD-1, in the experiment with M19-MEL, in the experiment with SNB-78, with KM-20L2 and with DMS-273 was > 100 µM (inactive) each time.
With `CN(C)NC(=S)NC12CC3CC(CC(C3)C1)C2`, the GI50 with DMS-114, with XF498, in the experiment with DLD-1, in the experiment on M19-MEL, with SNB-78 and with KM-20L2 was > 100 µM (inactive) each time. Besides, the GI50 in the experiment on DMS-273 and in the experiment with HOP-18 was > 100 µM (inactive) in each case.
`O=C1CC(S(=O)(=O)O)C=C1Nc1cccc(Cl)c1` (centres undefined): the GI50 in the experiment with XF498, in the experiment on DLD-1, in the experiment with M19-MEL, with SNB-78, with KM-20L2 and in the experiment on DMS-273 was > 100 µM (inactive) in each case. In addition, in the experiment on HOP-18, the GI50 was > 100 µM (inactive).
Regarding `CCOC(=O)/C=C/c1ccccn1`, the GI50 in the experiment on DMS-114, in the experiment with XF498, in the experiment with DLD-1, in the experiment on RXF 631, in the experiment with M19-MEL and with SNB-78 was > 100 µM (inactive) in each case. The GI50 with HOP-18 is > 100 µM (inactive).
For `O=C1CCCCC1C1(O)C(=O)Nc2cc(F)ccc21` (centres undefined), the GI50 in the experiment on DMS-114, with XF498, in the experiment on DLD-1, in the experiment on M19-MEL, with SNB-78 and in the experiment on KM-20L2 was > 100 µM (inactive) each time. Besides, the GI50 with DMS-273 and in the experiment on HOP-18 was > 100 µM (inactive) each time.
For the compound `CC(N)Cc1ccc(Cl)c(Cl)c1` (centres undefined), the GI50 in the experiment on DMS-114 was 24.2 µM (inactive); in the experiment on XF498, 10.9 µM (inactive); in the experiment on DLD-1, 34.4 µM (inactive); in the experiment on M19-MEL it was 24.2 µM (inactive); in the experiment on SNB-78, 28.4 µM (inactive); with KM-20L2 it was 22.9 µM (inactive). For the same compound, the GI50 with DMS-273 is 39.4 µM (inactive); with HOP-18 it was 27.8 µM (inactive).
As to `CC(=O)Nc1ccc(/C=C2\N=C(c3ccccc3)OC2=O)cc1`, the GI50 with DMS-114 was 1 µM (active); with DLD-1, > 100 µM (inactive); in the experiment on KM-20L2, > 100 µM (inactive); in the experiment with HOP-18 it was > 100 µM (inactive).
For `Cc1cccc(C)c1NC(=O)CCCC(=O)C1CCC/C1=N\NC(=O)C(=O)NN` (centres undefined), the GI50 in the experiment on DMS-114, in the experiment with XF498, in the experiment with DLD-1, with RXF 631, in the experiment with SNB-78 and in the experiment with KM-20L2 was > 100 µM (inactive) each time. In addition, the GI50 with DMS-273 and with HOP-18 was > 100 µM (inactive) each time.
`CCOC1C(Br)Cn2c(=O)c3cc4ccccc4cc3c(=O)n2C1C` (centres undefined): the GI50 in the experiment with DMS-114 is 44.8 µM (inactive); with XF498 it was 31 µM (inactive); with DLD-1, 54.3 µM (inactive); in the experiment on M19-MEL it was 55.6 µM (inactive); with SNB-78, > 100 µM (inactive); with KM-20L2 it was 68.9 µM (inactive). Moreover, in the experiment on DMS-273, the GI50 is 40.6 µM (inactive).
Regarding `COc1ccc(C(=O)C(c2ccc(OC)cc2)C2(O)C(=O)Nc3ccc([N+](=O)[O-])cc32)cc1` (centres undefined), the GI50 with DMS-114 is 48.8 µM (inactive); in the experiment with DLD-1, > 100 µM (inactive); with M19-MEL, > 100 µM (inactive); in the experiment with SNB-78, > 100 µM (inactive); in the experiment with KM-20L2, > 100 µM (inactive); in the experiment on DMS-273, > 100 µM (inactive).

The values above are taken from ChEMBL document CHEMBL1201862, “PubChem BioAssay data set” (2004).
